This is an account of results in ChEMBL document CHEMBL5030564, “Multifunctional Antibiotic-Host Defense Peptide Conjugate Kills Bacteria, Eradicates Biofilms, and Modulates the Innate Immune Response” (J Med Chem, 2021).

Each structure is given as a SMILES string. ≈ marks a conversion by molar mass, not a printed value. Calls of active or inactive are those of the source. No cut-off for these calls is given here. Residues, ends and D or L forms follow the SMILES beside them.

Data set [1] relates to Staphylococcus epidermidis. The data set can be described thus: Antibiofilm activity against Staphylococcus epidermidis ATCC14990 assessed as disruption of mature biofilms by TCC bacterial metabolic assay. The data set is classed as functional.
Data set [2] deals with Staphylococcus epidermidis. Nature of the data set: Antibiofilm activity against Staphylococcus epidermidis ATCC14990 assessed as inhibition of CV-staining/biomass formation measured after overnight incubation by biofilm inhibition assay. The class given is functional.
Data set [3] deals with Staphylococcus aureus. Nature of the data set: Antibiofilm activity against methicillin-resistant Staphylococcus aureus USA300 LAC assessed as killing biofilm cells at 16 ug/ml incubated for 4 hrs after SYTO9/PI staining by confocal microscopy. The settings on record: dose 16 µg/ml. The class given is functional, MRSA USA300 LAC.
In data set [4] the test system is Staphylococcus aureus. The data set can be described thus: Antibiofilm activity against methicillin-resistant Staphylococcus aureus SAP 0017 assessed as biofilm eradication concentration by Calgary biofilm device assay. The class given is functional.
The subject of data set [5] is Staphylococcus epidermidis. Nature of the data set: Antimicrobial activity against Staphylococcus epidermidis ATCC14990 assessed as inhibition of bacterial growth incubated for 18 to 20 hrs by broth microdilution assay. The data set is classed as functional. The note with it: time 18-20 hrs.
The nature of data set [6]: Toxicity in methicillin resistant Staphylococcus aureus USA300 infected CD-1 mouse assessed as reduction in bacterial load at 2.5 mg/kg, ILES after 3 days. The class given is organism-based. The note with it: in vivo, other, 72 h, time 3 day.
Data set [7] is described as follows: Cytotoxicity against PBMC (unknown origin) at 100 ug incubated for 24 hrs by lactate dehydrogenase assay. The data set is classed as tissue-based. The note with it: dose 100 µg.
Data set [8] concerns Staphylococcus aureus. Nature of the data set: Antimicrobial activity against methicillin-resistant Staphylococcus aureus SAP 0017 assessed as inhibition of bacterial growth incubated for 18 to 20 hrs by broth microdilution assay. The note with it: time 18-20 hrs. The data set is classed as functional.
The test system of data set [9] is Staphylococcus aureus. The data set can be described thus: Antibiofilm activity against methicillin-resistant Staphylococcus aureus USA300 LAC assessed as disruption of mature biofilms by TCC bacterial metabolic assay. The class given is functional, MRSA USA300 LAC.
For data set [10], the system named is Enterococcus faecium. Nature of the data set: Antibiofilm activity against Enterococcus faecium assessed as inhibition of CV-staining/biomass formation measured after overnight incubation by biofilm inhibition assay. The data set is classed as functional.
In data set [11] the test system is Staphylococcus aureus. The data set can be described thus: Antibiofilm activity against methicillin-resistant Staphylococcus aureus USA300 LAC assessed as rough surfaces sprinkled with debris at 16 ug/ml by scanning electron microscopy based assay. The class given is functional, organism-based. The note with it: MRSA USA300 LAC, dose 16.0 µg/ml.
Data set [12] relates to Staphylococcus aureus. The data set can be described thus: Antibiofilm activity against methicillin-resistant Staphylococcus aureus SAP 0017 assessed as disruption of mature biofilms by TCC bacterial metabolic assay. The data set is classed as functional.
Data set [13] deals with Staphylococcus aureus. Nature of the data set: Antibiofilm activity against methicillin resistant Staphylococcus aureus-lux biofilm in N/TERT-based epidermal model assessed as reduction in luminescence treated at 300 ug/ml topically incubated for 4 hrs by ChemiDoc imaging system. The class given is functional, organism-based. The note with it: dose 300.0 µg/ml.
Data set [14] deals with Staphylococcus aureus. Nature of the data set: Antibiofilm activity against methicillin-resistant Staphylococcus aureus USA300 LAC assessed as inhibition of CV-staining/biomass formation measured after overnight incubation by biofilm inhibition assay. The class given is functional, MRSA USA300 LAC.
Data set [15] deals with Staphylococcus aureus. Nature of the data set: Antibiofilm activity against methicillin-resistant Staphylococcus aureus USA300 LAC assessed as minimal biofilm eradication concentration required for complete inhibition of bacterial growth by Calgary biofilm device assay. The class given is functional, MRSA USA300 LAC.
Data set [16] has as its system Staphylococcus epidermidis. The data set can be described thus: Antibiofilm activity against Staphylococcus epidermidis ATCC14990 assessed as biofilm eradication concentration by Calgary biofilm device assay. The class given is functional.
Data set [17] can be described thus: (§1) Immunomodulatory activity in PBMC (unknown origin) assessed as reduction in LPS-induced IL-1beta level by ELISA. The class given is functional. Further details: scale not given: the % may be the effect or the level left. Background: ELISA stands for enzyme-linked immunosorbent assay.
Data set [18] concerns PBMC. Nature of the data set: Immunomodulatory activity in PBMC (unknown origin) assessed as increase in MCP-1 production level at 12.5 ug/ml incubated for 24 hrs by ELISA. The note with it: dose 12.5 µg/ml. The data set is classed as functional, tissue-based.
Data set [19] has as its system Enterococcus faecium. The data set can be described thus: Antibiofilm activity against Enterococcus faecium assessed as biofilm eradication concentration by Calgary biofilm device assay. The class given is functional.
Data set [20] concerns Staphylococcus aureus. The data set can be described thus: Antibacterial activity against methicillin resistant Staphylococcus aureus USA300 LAC assessed as change in susceptibility at sub-MIC treated over 14 serial passages by resistance development assay. The data set is classed as functional, organism-based. The note with it: MRSA USA300 LAC.
In data set [21] the test system is Enterococcus faecium. The data set can be described thus: Antimicrobial activity against Enterococcus faecium assessed as inhibition of bacterial growth incubated for 18 to 20 hrs by broth microdilution assay. The class given is functional. The note with it: time 18-20 hrs.
Data set [22] relates to Staphylococcus aureus. Nature of the data set: Antimicrobial activity against methicillin resistant Staphylococcus aureus in N/TERT-based epidermal model assessed as reduction in bacterial count in epidermis. The class given is functional, organism-based.
In data set [23] the test system is Staphylococcus aureus. Nature of the data set: Antibacterial activity against methicillin-resistant Staphylococcus aureus USA300 LAC assessed as measuring killing rate at 16 ug/ml measured with in 30 mins by time kill assay. The data set is classed as functional, organism-based. The settings on record: MRSA USA300 LAC, dose 16.0 µg/ml.
Data set [24] deals with Enterococcus faecium. The data set can be described thus: Antibiofilm activity against Enterococcus faecium assessed as reduction in viable biofilm cell counts by TCC bacterial metabolic assay. The data set is classed as functional, organism-based.
Data set [25] deals with Staphylococcus aureus. The data set can be described thus: Antibiofilm activity against methicillin-resistant Staphylococcus aureus SAP 0017 assessed as inhibition of CV-staining/biomass formation measured after overnight incubation by biofilm inhibition assay. The class given is functional.
Data set [26] is described as follows: Immunomodulatory activity in PBMC (unknown origin) assessed as reduction in LPS-induced IL-10 level by ELISA. The class given is functional. Further details: scale not given: the % may be the effect or the level left.
The nature of data set [27]: Toxicity in Staphylococcus epidermidis infected CD-1 mouse assessed as reduction in bacterial load at 2.5 mg/kg, ILES after 3 days. The settings on record: in vivo, other, 72 h, time 3 day. The data set is classed as organism-based.
For data set [28], the system named is Staphylococcus aureus. Nature of the data set: Antibiofilm activity against methicillin resistant Staphylococcus aureus in N/TERT-based epidermal model assessed as reduction in bacterial clusters by H&E staining based histological analysis. The class given is functional, organism-based.
Data set [29] has as its system Staphylococcus aureus. The data set can be described thus: Antimicrobial activity against methicillin-resistant Staphylococcus aureus USA300 LAC assessed as inhibition of bacterial growth incubated for 18 to 20 hrs by broth microdilution assay. The class given is functional. The note with it: MRSA USA300 LAC, time 18-20 hrs.
Data set [30] in a line: Toxicity in Staphylococcus epidermidis infected CD-1 mouse assessed as reduction in abscess size at 2.5 mg/kg, ILES after 3 days. Further details: scale not given: the % may be the effect or the level left. The class given is organism-based. The settings on record: in vivo, other, 72 h, time 3 day.
Data set [31] relates to PBMC. Described as §1. The class given is functional.
A short description of data set [32]: Toxicity in methicillin resistant Staphylococcus aureus USA300 infected CD-1 mouse assessed as reduction in bacterial load at 0.25 mg/kg, ILES after 3 days. The class given is organism-based. The note with it: in vivo, other, 72 h, time 3 day.
Data set [33] in a line: Toxicity in Staphylococcus epidermidis infected CD-1 mouse assessed as reduction in bacterial load at 0.25 mg/kg, ILES after 3 days. The class given is organism-based. The settings on record: in vivo, other, 72 h, time 3 day.

A word on the MIC: it is the lowest concentration that inhibits growth of the organism. For the compound `CC[C@H](C)[C@H](NC(=O)[C@H](CCCNC(=N)N)NC(=O)[C@@H](NC(=O)[C@H](C)NC(=O)[C@@H](NC(=O)[C@@H](NC(=O)[C@H](CC(C)C)NC(=O)[C@H](CCCNC(=N)N)NC(=O)[C@@H](NC(=O)[C@H]1NC(=O)[C@H]2NC(=O)[C@H](NC(=O)[C@@H]3NC(=O)[C@H](CC(N)=O)NC(=O)[C@H](NC(=O)[C@@H](CC(C)C)NC)[C@H](O)c4ccc(c(Cl)c4)Oc4cc3cc(c4O[C@@H]3O[C@H](CO)[C@@H](O)[C@H](O)[C@H]3O[C@H]3C[C@](C)(N)[C@H](O)[C@H](C)O3)Oc3ccc(cc3Cl)[C@H]2O)c2ccc(O)c(c2)-c2c(O)cc(O)cc21)C(C)C)[C@@H](C)CC)C(C)C)C(C)C)C(=O)N[C@@H](Cc1c[nH]c2ccccc12)C(=O)N[C@@H](CCCNC(=N)N)C(=O)N[C@@H](CCCNC(=N)N)C(N)=O`, the Activity in [1] was 80%; in data set [3], above 90%; in data set [6], “Non-Toxic”; in data set [7] it was “Non-Toxic”; in data set [9], 80%; in data set [12] it was 80%. Further, the Activity in [17] is reported as 40%; in data set [26], 40%; in data set [27] it was “Non-Toxic”; in data set [30], 90%. The MBIC was found to be 8 µg/mL in [2], 32 µg/mL in data set [10], 4 µg/mL in [14] and 4 µg/mL in data set [25]. The MBEC was found to be 8 µg/mL in data set [4], 8 µg/mL in data set [15], 8 µg/mL in data set [16] and 64 µg/mL in data set [19]. For the same compound, the minimum inhibitory concentration (MIC) in [5] was 4 mg/L (≈ 1.35 µM); in data set [8] it was 4 mg/L (≈ 1.35 µM); in data set [21], 32 mg/L (≈ 10.8 µM); in data set [29] it was 4 mg/L (≈ 1.35 µM). The outcome in [11], in data set [13], in [18], in data set [22], in data set [23] and in data set [28] was Active. Further, the outcome in data set [20] and in data set [24] was inactive.

With `CC[C@H](C)[C@H](NC(=O)[C@H](CCCNC(=N)N)NC(=O)[C@@H](NC(=O)[C@H](C)NC(=O)[C@@H](NC(=O)[C@@H](NC(=O)[C@H](CC(C)C)NC(=O)[C@H](CCCNC(=N)N)NC(=O)[C@@H](N)C(C)C)[C@@H](C)CC)C(C)C)C(C)C)C(=O)N[C@@H](Cc1c[nH]c2ccccc12)C(=O)N[C@@H](CCCNC(=N)N)C(=O)N[C@@H](CCCNC(=N)N)C(N)=O` (H-VRLIVAVRIWRR-NH2), the MBIC in data set [2] was 16 µg/mL; in data set [10], above 64 µg/mL. For the same compound, the results for the Activity in data set [3] and in data set [17] were above 75% and 40%, respectively. Further, the MIC was 16 mg/L (≈ 10.4 µM) in data set [5], 16 mg/L (≈ 10.4 µM) in data set [8], above 64 mg/L in data set [21] and 16 mg/L (≈ 10.4 µM) in data set [29]. In addition, the result in [13] was Active. Moreover, the values for the MBEC in [16] and in data set [19] were 16 µg/mL and above 128 µg/mL, respectively. Further, the “fold change (FC)” value in [27] is above 1000. In data set [28], the outcome was inactive.

On to `CCCCCCCCCCCCCCCC[N+](C)(C)Cc1ccccc1.[Cl-]` [CETALKONIUM CHLORIDE], for which the MBIC in data set [2] is 4 µg/mL; in [10] it was above 64 µg/mL; in data set [14] it was 4 µg/mL; in data set [25], 4 µg/mL. The MIC in data set [5] was 4 mg/L; in [8] it was 2 mg/L; in data set [21] it was above 64 mg/L; in data set [29], 2 mg/L. The MBEC is 8 µg/mL in [15], 16 µg/mL in [16] and above 128 µg/mL in data set [19].

As to `CN[C@H](CC(C)C)C(=O)N[C@H]1C(=O)N[C@@H](CC(N)=O)C(=O)N[C@H]2C(=O)N[C@H]3C(=O)N[C@H](C(=O)N[C@H](C(=O)O)c4cc(O)cc(O)c4-c4cc3ccc4O)[C@H](O)c3ccc(c(Cl)c3)Oc3cc2cc(c3O[C@@H]2O[C@H](CO)[C@@H](O)[C@H](O)[C@H]2O[C@H]2C[C@](C)(N)[C@H](O)[C@H](C)O2)Oc2ccc(cc2Cl)[C@H]1O` [VANCOMYCIN], the MBIC in data set [2] is 2 µg/mL; in data set [10], above 128 µg/mL; in data set [14], 2 µg/mL; in data set [25], 2 µg/mL. The Activity in data set [3] is below 25%; in data set [32], “Non-Toxic”; in data set [33], “Non-Toxic”; in data set [26] it was 5%. In addition, the MBEC in data set [4], in data set [15], in [16] and in [19] was above 128 µg/mL throughout. Moreover, the outcome in data set [13] was Active. Also, the result in data set [31] and in data set [28] was inactive. Besides, in data set [21], the MIC was above 128 mg/L.
